Data on one compound can be found in US9428753B2, “Use of LXR antagonists for treatment of side effects of elevated glucocorticoid levels” (The Governing Council of the University of Toronto, priority 2013, dated 2016).

Entries after “also recorded” stand apart in the source; their conditions may differ.

One series has as its system IL-1β. In words: IL-1β gene expression in LPS activated mouse primary macrophages (RT-QPCR). In kind it is cell-based. The procedure:
(§1) The expression of genes involved in immune response IL-1β, IL-6 and GILZ was measured following an overnight treatment with Dex 100 nM, 250 nM T0901317 (T09), and/or 10 μM GSK2033 in LPS activated WT, LXR α −/− and LXRβ −/− mouse primary macrophages, by RT-QPCR. Data represent the Avg±SD, N=3. *P<0.05 by One way ANOVA, Student Newman Keuls.
(§2) To assess the ability of GSK2033 to affect GR-mediated inflammatory suppression, a number of gene expression studies were conducted on primary macrophages isolated from WT, LXRα−/− and LXRβ−/− mice. Cells were pre-treated with 10 ng/ml lipopolysaccharide (LPS) for 6 hrs (to induce a potent inflammatory response) followed by treatment of 100 nM Dex, 10 μM GSK2033 and/or 250 nM T09 for 18 hrs.

Series [1] concerns the target T1, LXRα (Homo sapiens, UniProt Q13133).
T1 sequence (Q13133 209-447 limits assumed): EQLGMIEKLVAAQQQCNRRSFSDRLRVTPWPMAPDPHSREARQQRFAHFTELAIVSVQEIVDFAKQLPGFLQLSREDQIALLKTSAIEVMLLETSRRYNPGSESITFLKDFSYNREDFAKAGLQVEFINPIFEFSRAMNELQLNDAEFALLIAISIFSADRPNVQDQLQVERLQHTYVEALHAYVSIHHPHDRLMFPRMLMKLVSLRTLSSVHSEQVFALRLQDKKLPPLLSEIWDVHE
In words: cell-based.

For series [2], the target named is T2, GR (Homo sapiens, UniProt P04150).
T2 sequence (P04150 524-758 limits assumed): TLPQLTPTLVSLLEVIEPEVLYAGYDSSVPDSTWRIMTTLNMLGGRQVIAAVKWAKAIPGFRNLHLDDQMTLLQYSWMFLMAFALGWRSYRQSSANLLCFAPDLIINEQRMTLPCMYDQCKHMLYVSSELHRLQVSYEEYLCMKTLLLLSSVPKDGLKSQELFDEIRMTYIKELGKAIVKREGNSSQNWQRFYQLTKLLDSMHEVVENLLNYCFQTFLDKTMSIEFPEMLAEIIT
In words: GAL4-GR / UAS-luc transfection assay in mouse primary hepatocytes. It counts as cell-based. The note with it: GAL4-GR activated with 100 nM Dex. On the set-up: co-transfecting UAS-reporter and GAL4-LBD of the nuclear receptors LXRα, LXRβ and GR; GAL4 (fusion partner); expressed in transfected cells; host or cells: mouse primary hepatocytes. An excerpt: (§3) RLU=relative luciferase units.

A further series deals with LXRα−/− mice. In words: In vivo pilot study: T09 with GSK2033, liver LXR target genes.
The test system of a further series is GILZ. In words: GILZ gene expression in LPS activated mouse primary macrophages (RT-QPCR). It counts as cell-based. The note with it: 100 nM Dex + 10 μM GSK2033, 18 hrs. On the procedure: as §1, §2
The next series relates to IL-6. In words: IL-6 gene expression in LPS activated mouse primary macrophages (RT-QPCR). It counts as cell-based. On the procedure: as §1, §2
Series [3] has as its target T2, GR. In words: GAL4-GR / UAS-luc co-transfection reporter assay in HEK293 cells. It counts as cell-based. More on the design: co-transfecting UAS-reporter and GAL4-LBD of the nuclear receptors LXRα, LXRβ and GR; GAL4 (fusion partner); expressed in transfected cells; host or cells: HEK293 cells; mouse primary hepatocytes. On the procedure:
as §3, §3
(§4) Further experiments were then carried out to determine the inhibitory potencies for the individual LXR isoforms in HEK 293 cells by co-transfecting UAS-reporter and GAL4-LBD of the nuclear receptors LXRα, LXRβ and GR and then treating with 8 different concentrations of GSK2033. To assess suppression of ligand activated receptors, the transfected cells were co-treated with increasing doses of GSK2033, in addition to T09091317 or Dex (dexamethasone) (at EC80 of LXR isoforms and GR, respectively).
(§5) A number of experiments were carried out to determine the relative inhibitory potencies of GSK2033, Amgen 54 and DMHCl for the individual LXR isoforms in HEK 293 cells by co-transfecting UAS-reporter and GAL4-LBD of the nuclear receptors LXRα, LXRβ and GR and then treating with 6 different concentrations of GSK2033, Amgen 54 and DMHCl. To assess suppression of ligand activated receptors, the transfected cells were co-treated with increasing doses of GSK2033, Amgen 54 and DMHCl, in addition to T09091317 or Dex (at EC80 of LXR isoforms and GR, respectively).
(A reporter such as luciferase makes a cellular process visible.)

A further series concerns Pepck. In words: Pepck gene expression in mouse primary hepatocytes. In kind it is cell-based.
For series [4], the target named is T1, LXRα. In words: GAL4-LXRα / UAS-luc co-transfection reporter assay in HEK293 cells. It counts as cell-based. More on the design: co-transfecting UAS-reporter and GAL4-LBD of the nuclear receptors LXRα, LXRβ and GR; GAL4 (fusion partner); expressed in transfected cells; host or cells: HEK293 cells; mouse primary hepatocytes. On the procedure:
as §3, §3, §4, §5

Where [5] appears, read: LPS activated macrophages, 250 nM T09 + 10 μM GSK2033.
The mark [6] stands for this setting: WT, LXRα−/− and LXRβ−/− macrophages, LPS 10 ng/ml 6 hrs, 100 nM Dex + 10 μM GSK2033, 18 hrs.
Where [7] appears, read: T09 5 mg/kg i.p. + GSK2033 20 or 40 mg/kg i.p.

Regarding `Cc1cc(C)c(S(=O)(=O)N(Cc2ccc(-c3cccc(S(C)(=O)=O)c3)cc2)Cc2ccc(C(F)(F)F)o2)c(C)c1` [GSK2033, 2,4,6-trimethyl-N-((3′-(methylsulfonyl)-[1,1′-biphenyl]-4-yl)methyl)-N-((5-(trifluoromethyl)furan-2-yl)methyl)benzenesulfonamide], the “T09 mediated suppression of IL-1β under GSK2033 co-treatment” value with IL-1β (setting [5]) is given as “antagonized”. The “Dex-mediated IL-1β repression under GSK2033 co-treatment” value in the series on IL-1β (setting [6]) is reported as “unaffected”. The IC50 at LXRα [1] turned out to be 660 nM; on LXRα [4] (Example 1, T0901317 at EC80 (250 nM), 8 concentrations, read-out: IC50 against LXRα) it was 79 nM; at LXRα [4] (Example 7, T0901317 250 nM, 6 concentrations, read-out: IC50 to inhibit LXRα), 22 nM. Moreover, at GR [2], the GR activity entry is recorded as “unaffected; also recorded: did not antagonize”. Moreover, in the series on LXRα−/− mice (setting [7]), the “liver ABCG5 activation by T09” value was “dose dependent inhibition; also recorded: dose dependent repression”. Besides, the “liver ABCG8 activation by T09” value with LXRα−/− mice (setting [7]) is reported as “dose dependent inhibition; also recorded: dose dependent repression”. The toxicity entry with LXRα−/− mice (higher dose of GSK2033 (40 mg/kg)) was “no toxicity”. Besides, the “GR-mediated induction of GILZ under GSK2033 co-treatment” value in the series with GILZ is reported as “unaffected”. Besides, the “T09 mediated suppression of IL-6 under GSK2033 co-treatment” value with IL-6 (setting [5]) was “antagonized”. Moreover, the “Dex-mediated IL-6 repression under GSK2033 co-treatment” value in the series on IL-6 (setting [6]) was “unaffected”. Moreover, the “Dex induced GR activity” value on GR [3] (Example 1, GAL4-GR activated with 100 nM Dex) is listed as “unaffected; also recorded: did not antagonize”; on GR [3] (Example 7, 100 nM Dex), “unaffected; also recorded: did not antagonize”. In addition, the Pepck expression in the series with Pepck (Example 3, LXRα−/− hepatocytes, 100 nM Dex + 10 μM GSK2033) is reported as 3.2 fold; in the series on Pepck (Example 3, LXRβ−/− hepatocytes, 100 nM Dex + 10 μM GSK2033), “remained unchanged”; with Pepck (Example 3, WT hepatocytes, 100 nM Dex + 10 μM GSK2033) it was 1.9 fold; in the series with Pepck (Example 6, LXRα−/− hepatocytes, 100 nM Dex + 10 μM GSK2033) it was 0.8 fold; in the series with Pepck (Example 6, LXRα−/− hepatocytes, 10 μM Cortisol + 10 μM GSK2033), 1.7 fold; with Pepck (Example 6, LXRα−/− hepatocytes, 10 μM Prednisone + 10 μM GSK2033) it was 1.24 fold. Further, the Pepck expression amounted to 0.6 fold in the series with Pepck (Example 6, LXRα−/− hepatocytes, 10 μM Triamcinolone acetonide + 10 μM GSK2033) and 2.7 fold in the series with Pepck (Example 8, LXRα−/− hepatocytes, 100 nM Dex + 10 μM LXR antagonist). Moreover, the “basal repression of LXRα” value on LXRα [4] (preliminary experiment, 3 doses) was “basal repression”.

For orientation: IC50 means the concentration that inhibits the measured activity by half.
